Data: US6965013B2, “Intermedin and its uses” (The Board of Trustees of the Leland Stanford Junior …, priority 2002, dated 2005)
Ends that are not written are not given here.

Legend:
[1] = test system: spontaneously hypertensive rats (SHR); assay: Blood pressure in spontaneously hypertensive rats (tail-cuff); format: in vivo, rat; details: male SHR, FIG. 6D; for blockage of the hypotensive effects of IMDL: cotreatment with IMDL
Protocol: (§1) Effects of intermedin on blood pressure and heart rate in normal and hypertensive rats. Blood pressure measurements in conscious male Sprague-Dawley rats and spontaneously hypertensive rats (SHR)(7-9 weeks of age) were made in animals preadapted to the measurement procedure. Indirect systolic pressure was determined by a programmable NIBP system using the tail-cuff method (Columbus Instruments, Columbus, Ohio). Following attachment of the pressure transducer, rats were left undisturbed for 10 min before baseline measurements that spanned a 15-min interval. Following baseline measurements, rats were injected intraperitoneally with varying doses of hormones. Blood pressure and heart rate were monitored for 40 min at 20-sec intervals. Changes in blood pressure were calculated as the average of thirty measurements performed within each 10-min interval.

male Sprague-Dawley rats = assay: Blood pressure and heart rate in normal rats (tail-cuff); format: in vivo, rat; details: for blockage of the hypotensive effect of IMDL: male Sprague-Dawley rats, cotreatment with IMDL, CGRP8-37 in 20-fold excess, FIG. 6C; for systolic blood pressure / heart rate: conscious male Sprague-Dawley rats, intraperitoneal; for systolic blood pressure: monitored 40 min, FIGS. 6A, 6C; for heart rate: FIG. 6B
Protocol: as §1

[2] = target: T1, L6 skeletal myoblast cells expressing endogenous CRLR (CGRP receptor) (Rattus norvegicus, UniProt Q63118+Q9JJ74); assay: Stimulation of cAMP production in L6 cells; format: cell-based; details: for cAMP production: 30 min treatment, 2.5 mM IBMX, FIG. 2B
T1 construct: expressing endogenous CRLR; host or cells: L6 rat skeletal myoblast cells
T1 sequence (Q63118 24-464): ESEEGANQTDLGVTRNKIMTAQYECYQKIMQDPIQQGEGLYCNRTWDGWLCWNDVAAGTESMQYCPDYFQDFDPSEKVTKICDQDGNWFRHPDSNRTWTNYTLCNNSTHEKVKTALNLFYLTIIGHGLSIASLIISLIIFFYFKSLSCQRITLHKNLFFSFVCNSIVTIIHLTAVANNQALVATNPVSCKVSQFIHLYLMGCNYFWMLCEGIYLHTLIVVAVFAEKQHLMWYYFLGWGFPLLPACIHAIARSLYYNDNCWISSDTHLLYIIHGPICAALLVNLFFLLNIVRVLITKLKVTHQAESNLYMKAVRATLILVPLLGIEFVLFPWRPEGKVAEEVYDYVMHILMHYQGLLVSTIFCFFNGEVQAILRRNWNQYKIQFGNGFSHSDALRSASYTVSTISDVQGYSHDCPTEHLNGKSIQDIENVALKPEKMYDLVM
T1 sequence (Q9JJ74 27-148 partner): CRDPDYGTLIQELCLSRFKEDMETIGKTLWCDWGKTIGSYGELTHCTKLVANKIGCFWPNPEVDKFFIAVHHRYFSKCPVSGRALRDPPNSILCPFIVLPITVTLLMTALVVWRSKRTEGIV
Protocol: (§2) Human neuroblastoma SK-N-MC and rat L6 skeletal myoblast cells expressing endogenous CRLR were obtained from American Type Culture Collection. To estimate adenylyl cyclase activation, SK-N-MC and L6 cells (2×10^5 viable cells/well) were plated in 24-well culture dishes in DMEM/F12 medium one day before treatment. Following 2 h incubation in serum-free DMEM/F12 medium, cells were treated with testing reagents for 30 min in medium containing 0.1% BSA and 2.5 mM 3-isobutyl-1-methylxanthine (IBMX, Sigma-Aldrich Corp.) to prevent hydrolysis of cAMP by phosphodiesterases. Following treatment, cells were lysed and cAMP content determined by a specific radioimmunoassay.

[3] = target: T2, SK-N-MC cells expressing endogenous CRLR (CGRP receptor) (Homo sapiens, UniProt O60894+Q16602); assay: Stimulation of cAMP production in SK-N-MC cells; format: cell-based; details: 30 min treatment, 2.5 mM IBMX, FIG. 2A
T2 construct: expressing endogenous CRLR; host or cells: SK-N-MC human neuroblastoma cells
T2 sequence (Q16602 23-461): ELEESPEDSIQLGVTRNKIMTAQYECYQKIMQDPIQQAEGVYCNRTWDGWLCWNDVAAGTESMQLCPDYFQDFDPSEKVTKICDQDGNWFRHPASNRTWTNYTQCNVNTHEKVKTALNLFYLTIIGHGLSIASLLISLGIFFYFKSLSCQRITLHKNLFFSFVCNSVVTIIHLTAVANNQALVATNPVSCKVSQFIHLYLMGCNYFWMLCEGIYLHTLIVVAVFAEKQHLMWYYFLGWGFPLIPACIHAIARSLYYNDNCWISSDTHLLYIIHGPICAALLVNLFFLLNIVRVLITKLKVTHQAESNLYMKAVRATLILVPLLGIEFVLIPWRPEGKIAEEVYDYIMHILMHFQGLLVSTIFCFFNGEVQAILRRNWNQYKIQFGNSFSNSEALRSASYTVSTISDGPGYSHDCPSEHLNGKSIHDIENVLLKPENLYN
T2 sequence (O60894 27-148 partner): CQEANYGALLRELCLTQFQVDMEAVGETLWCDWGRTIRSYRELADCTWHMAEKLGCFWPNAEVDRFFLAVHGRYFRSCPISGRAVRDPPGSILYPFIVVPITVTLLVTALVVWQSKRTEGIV
Protocol: as §2

C57/BL6 male mice [4] = assay: Gastric emptying activity in mice; format: in vivo, mouse; details: intraperitoneal 100 nM/Kg, 90 min after hormone treatment, FIG. 8
Protocol: Effects of intermedin on gastric emptying activity. Eight-week-old C57/BL6 male mice deprived of food for 20 h were given food pellets for 90 min before intraperitoneal injection with different hormones or saline. After treatment, mice were deprived of food again and killed 90 min later. The stomach was excised at the pylorus and cardia before weighing. Gastric emptying was calculated by comparing the stomach weight of treated mice to the stomach weight of control mice killed at the time of hormone injection.

[5] = target: T3, CGRP receptor (CRLR) on intact L6 cells (Rattus norvegicus, UniProt Q63118+Q9JJ74); assay: Receptor-binding assay, displacement of 125I-CGRP from L6 cells; details: 37C, 2 h, FIG. 2F
T3 construct: expressing endogenous CRLR; host or cells: L6 rat skeletal myoblast cells
T3 sequence (Q63118 24-464): as the sequence (Q63118 24-464) above
T3 sequence (Q9JJ74 27-148 partner): as the sequence (Q9JJ74 27-148 partner) above
Protocol: Receptor-binding assay. Ligand-binding assays were done in siliconized microfuge tubes at 37C for 2 h. […] After a 2 h incubation at 37C, the cell-associated ligand was estimated. Radioactivity was determined using a γ-counter (EG&G Wallace, Gaithersburg, Md.).

C57/BL6 male mice [6] = assay: Cumulative food intake in fasted mice; format: in vivo, mouse; details: mice fasted 20 h, intraperitoneal 100 nM/Kg, 1, 2 and 4 h after treatment, FIG. 7
Protocol: Analysis of ingestive behavior. Eight-week-old C57/BL6 male mice were housed individually in a regulated environment. Before intraperitoneal injection with testing reagents, mice were deprived of food for 20 h with free access to water. Food intake was measured by placing preweighed pellets in the cage and weighing uneaten pellets at 1, 2, and 4 h after treatment.

[7] = humans, administration of ADM, earlier studies; cited from earlier work
[8] = target: T4, endogenous calcitonin receptor (Homo sapiens, UniProt P30988); assay: cAMP production in 293T cells via the endogenous calcitonin receptor; format: cell-based; details: FIG. 3A
T4 construct: through the endogenous calcitonin receptor; endogenous in cells; host or cells: HEK293T
T4 sequence (P30988 25-474): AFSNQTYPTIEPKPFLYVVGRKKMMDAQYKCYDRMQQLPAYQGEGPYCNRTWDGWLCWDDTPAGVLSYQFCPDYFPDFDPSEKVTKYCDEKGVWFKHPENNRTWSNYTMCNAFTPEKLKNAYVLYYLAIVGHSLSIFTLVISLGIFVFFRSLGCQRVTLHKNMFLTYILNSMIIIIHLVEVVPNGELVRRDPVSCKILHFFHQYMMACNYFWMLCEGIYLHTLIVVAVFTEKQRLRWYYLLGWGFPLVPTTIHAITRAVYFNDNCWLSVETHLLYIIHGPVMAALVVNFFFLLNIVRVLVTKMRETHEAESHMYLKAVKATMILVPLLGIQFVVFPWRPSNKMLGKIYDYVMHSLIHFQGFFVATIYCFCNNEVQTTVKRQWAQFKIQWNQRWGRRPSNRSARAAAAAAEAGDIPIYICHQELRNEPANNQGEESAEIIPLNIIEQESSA

cAMP production [2] | Substance | systolic blood pressure (male Sprague-Dawley rats) | gastric emptying activity (C57/BL6 male mice [4]) | heart rate (male Sprague-Dawley rats) | cumulative food intake (C57/BL6 male mice [6]) | other results
 | ADM22-52: low affinity ADM22-52 fragment (TVQKLAHQIYQFTDKDKDNVAPRSKISPQGY; ends and bridges not checked; UniProt P35318 116-146, looked up, fragment) |  |  |  |  | blockage of the hypotensive effects of IMDL [1]: minimal effect
 | CGRP8-37: N-terminally truncated CGRP, a CGRP receptor antagonist (VTHRLAGLLSRSGGVVKNNFVPTNVGSKAF; ends and bridges not checked; UniProt P06881 90-119, looked up, fragment) [reference compound] |  |  |  |  | blockage of the hypotensive effect of IMDL (male Sprague-Dawley rats): significantly decreased the hypotensive effects of IMDL; blockage of the hypotensive effects of IMDL [1]: abolished
no effect | IMD17-47: truncated amidated intermedin fragment, putative C-terminal receptor-binding domain (VQNLSHRLWQLMGPAGRQDSAPVDPSSPHSY-NH2) | no effect |  |  |  | blockage of the stimulatory effect of intermedin on cAMP production ([2]; cotreatment with intermedin, IMD17-47 at 1 μM, FIGS. 2C, 2D): functional antagonist of intermedin action; blockage of the hypotensive effect of IMDL (male Sprague-Dawley rats): blocked the hypotensive effects of IMDL; cAMP production [3]: no effect
 | SRP/urocortin II: type II CRH receptor-selective agonist, known gastric emptying suppression peptide (IVLSLDVPIGLLQILLEQARARAAREQATTNARILARVGHC; Urocortin-2; UniProt Q96RP3 72-112, looked up) [reference compound] |  | Reduction of gastric emptying |  | decreased food intake | 
stimulated cAMP production | adrenomedullin [ADM, reference compound] | dose-dependently suppressed systolic blood pressure | suppressed the gastric emptying activity, but with a lower potency | Increase in heart rate | decreased food intake | circulating prolactin levels [7]: increases circulating prolactin levels
 | calcitonin |  |  |  |  | cAMP production [8]: increases cAMP dose-dependently
no effect | nonamidated form of intermedin: nonamidated form of the synthetic intermedin peptide |  |  |  |  | 
no effect | prointermedin55-85: 31-amino-acid peptide from the prepro-region of human intermedin (PRPVVWKLHRALQAQRGAGLAPVMGQPLRDG; pro-form; UniProt Q7Z4H4 55-85, looked up, fragment) | no effect |  |  |  | cAMP production [3]: no effect

Substance | cAMP production [2] | systolic blood pressure (male Sprague-Dawley rats) | gastric emptying activity (C57/BL6 male mice [4]) | heart rate (male Sprague-Dawley rats) | cumulative food intake (C57/BL6 male mice [6]) | other results
IMDL: 47-amino-acid amidated mature human intermedin peptide, SEQ ID NO:5 residues 1-47 | dose-dependent increases of cAMP production | dose-dependently suppressed blood pressure | Reduction of gastric emptying | increased heart rate | decreased food intake | competitive displacement of 125I-CGRP binding [5]: displaced ^125I-CGRP binding; blood pressure ([1]; intraperitoneal): reduced blood pressure
IMDS: 40-amino-acid amidated mature human intermedin peptide, SEQ ID NO:5 residues 8-47 | dose-dependent increases of cAMP production | dose-dependently suppressed blood pressure | Reduction of gastric emptying | increased heart rate | decreased food intake | competitive displacement of 125I-CGRP binding [5]: displaced ^125I-CGRP binding
